Laboratory results from ChEMBL document CHEMBL6109108, “A comprehensive review of fused imidazonaphthyridine derivatives: Synthetic approaches and biological applications” (Bioorg Med Chem, 2025).
pEC50, pIC50: −log10 of the molar value. One block for each molecule: values may come before it.

Assays:
[1] = test system: Candida metapsilosis; test: Antifungal activity against Candida metapsilosis assessed as zone of inhibition at 10 ug/ml by disc diffusion method; type: functional; conditions: Lodderomyces metapsilosis, read-out: IZ
[2] = test system: Staphylococcus aureus; test: Antibacterial activity against Staphylococcus aureus assessed as zone of inhibition at 35 ug/ml by agar disc diffusion method; type: functional; conditions: read-out: IZ
[3] = test system: Aspergillus niger; test: Antifungal activity against Aspergillus niger assessed as zone of inhibition at 10 ug/ml by disc diffusion method; type: functional; conditions: read-out: IZ
[4] = test system: Staphylococcus aureus; test: Antibacterial activity against Staphylococcus aureus assessed as zone of inhibition at 10 ug/ml by agar disc diffusion method; type: functional; conditions: read-out: IZ
[5] = test system: Escherichia coli; test: Antibacterial activity against Escherichia coli assessed as zone of inhibition at 35 ug/ml by agar disc diffusion method; type: functional; conditions: read-out: IZ
[6] = test system: Escherichia coli; test: Antibacterial activity against Escherichia coli assessed as zone of inhibition at 25 ug/ml by agar disc diffusion method; type: functional; conditions: read-out: IZ
[7] = test system: Aspergillus niger; test: Antifungal activity against Aspergillus niger assessed as zone of inhibition at 35 ug/ml by disc diffusion method; type: functional; conditions: read-out: IZ
[8] = test system: Aspergillus niger; test: Antifungal activity against Aspergillus niger assessed as zone of inhibition at 25 ug/ml by disc diffusion method; type: functional; conditions: read-out: IZ
[9] = test system: Escherichia coli; test: Antibacterial activity against Escherichia coli assessed as zone of inhibition at 10 ug/ml by agar disc diffusion method; type: functional; conditions: read-out: IZ
[10] = test system: Candida metapsilosis; test: Antifungal activity against Candida metapsilosis assessed as zone of inhibition at 35 ug/ml by disc diffusion method; type: functional; conditions: Lodderomyces metapsilosis, read-out: IZ
[11] = test system: Candida metapsilosis; test: Antifungal activity against Candida metapsilosis assessed as zone of inhibition at 25 ug/ml by disc diffusion method; type: functional; conditions: Lodderomyces metapsilosis, read-out: IZ
[12] = test system: Staphylococcus aureus; test: Antibacterial activity against Staphylococcus aureus assessed as zone of inhibition at 25 ug/ml by agar disc diffusion method; type: functional; conditions: read-out: IZ
[13] = test system: Aphis craccivora; test: Anti-insecticidal activity against Aphis craccivora; type: functional
[14] = target: Voltage-gated inwardly rectifying potassium channel KCNH2 (Homo sapiens, UniProt Q12809); test: Inhibition of hERG; type: toxicity
Chain of Voltage-gated inwardly rectifying potassium channel KCNH2 (Q12809 whole entry): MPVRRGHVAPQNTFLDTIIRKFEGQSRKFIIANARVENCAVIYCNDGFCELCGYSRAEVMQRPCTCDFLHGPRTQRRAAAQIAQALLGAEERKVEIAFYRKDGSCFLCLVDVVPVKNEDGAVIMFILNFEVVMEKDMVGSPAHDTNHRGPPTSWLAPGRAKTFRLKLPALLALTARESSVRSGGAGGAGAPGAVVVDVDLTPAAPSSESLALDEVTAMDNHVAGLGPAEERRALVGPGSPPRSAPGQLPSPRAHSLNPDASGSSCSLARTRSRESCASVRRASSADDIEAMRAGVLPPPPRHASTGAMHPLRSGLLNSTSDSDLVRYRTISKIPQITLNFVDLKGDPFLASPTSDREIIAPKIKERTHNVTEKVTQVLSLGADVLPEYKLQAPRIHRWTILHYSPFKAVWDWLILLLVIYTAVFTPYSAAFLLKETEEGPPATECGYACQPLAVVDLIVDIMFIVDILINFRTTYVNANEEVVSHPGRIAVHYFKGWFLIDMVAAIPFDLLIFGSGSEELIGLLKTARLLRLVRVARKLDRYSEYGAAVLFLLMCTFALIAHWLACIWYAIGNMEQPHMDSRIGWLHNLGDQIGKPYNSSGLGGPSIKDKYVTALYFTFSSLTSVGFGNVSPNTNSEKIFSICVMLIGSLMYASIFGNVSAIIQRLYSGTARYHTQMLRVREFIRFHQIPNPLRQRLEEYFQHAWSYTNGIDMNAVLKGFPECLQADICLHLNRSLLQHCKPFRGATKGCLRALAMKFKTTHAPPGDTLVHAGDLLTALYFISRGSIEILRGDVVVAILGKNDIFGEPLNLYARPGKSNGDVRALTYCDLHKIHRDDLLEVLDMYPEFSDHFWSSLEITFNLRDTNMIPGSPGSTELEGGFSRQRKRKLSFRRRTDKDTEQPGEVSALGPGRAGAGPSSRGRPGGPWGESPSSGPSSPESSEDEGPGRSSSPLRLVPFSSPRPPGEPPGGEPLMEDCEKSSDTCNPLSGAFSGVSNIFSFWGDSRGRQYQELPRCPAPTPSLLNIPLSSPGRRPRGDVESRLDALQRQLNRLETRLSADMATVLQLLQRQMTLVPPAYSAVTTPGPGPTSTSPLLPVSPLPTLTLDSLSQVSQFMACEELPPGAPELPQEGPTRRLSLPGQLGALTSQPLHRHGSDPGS

[15] = test system: Hepatitis C virus; test: Antiviral activity against Hepatitis C virus genotype 2a infected in human Huh-7 cells assessed as reduction in viral infection; type: functional, organism-based, Hepacivirus hominis
[16] = test system: Bacillus subtilis; test: Antibacterial activity against Bacillus subtilis assessed as zone of inhibition at 200 ug/ml by agar disc diffusion method; type: functional; conditions: read-out: IZ
[17] = test system: Pseudomonas aeruginosa; test: Antibacterial activity against Pseudomonas aeruginosa assessed as zone of inhibition at 200 ug/ml by agar disc diffusion method; type: functional; conditions: read-out: IZ
[18] = test system: Staphylococcus aureus; test: Antibacterial activity against Staphylococcus aureus assessed as zone of inhibition at 250 ug/ml by agar disc diffusion method; type: functional; conditions: read-out: IZ
[19] = test system: Bacillus subtilis; test: Antibacterial activity against Bacillus subtilis assessed as zone of inhibition at 250 ug/ml by agar disc diffusion method; type: functional; conditions: read-out: IZ
[20] = test system: Pseudomonas aeruginosa; test: Antibacterial activity against Pseudomonas aeruginosa assessed as zone of inhibition at 150 ug/ml by agar disc diffusion method; type: functional; conditions: read-out: IZ
[21] = test system: Staphylococcus aureus; test: Antibacterial activity against Staphylococcus aureus assessed as zone of inhibition at 150 ug/ml by agar disc diffusion method; type: functional; conditions: read-out: IZ
[22] = test system: Bacillus subtilis; test: Antibacterial activity against Bacillus subtilis assessed as zone of inhibition at 150 ug/ml by agar disc diffusion method; type: functional; conditions: read-out: IZ
[23] = test system: Escherichia coli; test: Antibacterial activity against Escherichia coli assessed as zone of inhibition at 200 ug/ml by agar disc diffusion method; type: functional; conditions: read-out: IZ
[24] = test system: Staphylococcus aureus; test: Antibacterial activity against Staphylococcus aureus assessed as zone of inhibition at 200 ug/ml by agar disc diffusion method; type: functional; conditions: read-out: IZ
[25] = test system: Pseudomonas aeruginosa; test: Antibacterial activity against Pseudomonas aeruginosa assessed as zone of inhibition at 250 ug/ml by agar disc diffusion method; type: functional; conditions: read-out: IZ
[26] = test system: Escherichia coli; test: Antibacterial activity against Escherichia coli assessed as zone of inhibition at 150 ug/ml by agar disc diffusion method; type: functional; conditions: read-out: IZ
[27] = test system: Escherichia coli; test: Antibacterial activity against Escherichia coli assessed as zone of inhibition at 250 ug/ml by agar disc diffusion method; type: functional; conditions: read-out: IZ
[28] = target: hERG (KCNH2) (Homo sapiens, UniProt Q12809); test: Inhibition of hERG potassium […] at 100 uM relative to control; type: toxicity
Chain of hERG (KCNH2) (Q12809 whole entry, the tested form may be a part): as the sequence (Q12809 whole entry) above

[29] = test system: Escherichia coli; test: Antibacterial activity against Escherichia coli assessed as zone of inhibition at 600 ug/ml by agar disk diffusion method; type: functional; conditions: read-out: IZ
[30] = test system: Escherichia coli; test: Antibacterial activity against Escherichia coli assessed as zone of inhibition at 400 ug/ml by agar disk diffusion method; type: functional; conditions: read-out: IZ
[31] = test system: Bacillus subtilis; test: Antibacterial activity against Bacillus subtilis assessed as diameter of zone of inhibition at 600 ug/ml by agar disk diffusion method; type: functional; conditions: read-out: IZ
[32] = test system: Bacillus subtilis; test: Antibacterial activity against Bacillus subtilis assessed as diameter of zone of inhibition at 400 ug/ml by agar disk diffusion method; type: functional; conditions: read-out: IZ
[33] = test system: Staphylococcus aureus; test: Antibacterial activity against Staphylococcus aureus assessed as zone of inhibition at 35 ug/ml by agar well diffusion method; type: functional; conditions: read-out: IZ
[34] = test system: Escherichia coli; test: Antibacterial activity against Escherichia coli assessed as zone of inhibition at 25 ug/ml by agar well diffusion method; type: functional; conditions: read-out: IZ
[35] = test system: Escherichia coli; test: Antibacterial activity against Escherichia coli assessed as zone of inhibition at 35 ug/ml by agar well diffusion method; type: functional; conditions: read-out: IZ
[36] = test system: Staphylococcus aureus; test: Antibacterial activity against Staphylococcus aureus assessed as zone of inhibition at 25 ug/ml by agar well diffusion method; type: functional; conditions: read-out: IZ
[37] = test system: Staphylococcus aureus; test: Antibacterial activity against Staphylococcus aureus assessed as zone of inhibition at 10 ug/ml by agar well diffusion method; type: functional; conditions: read-out: IZ
[38] = test system: Escherichia coli; test: Antibacterial activity against Escherichia coli assessed as zone of inhibition at 10 ug/ml by agar well diffusion method; type: functional; conditions: read-out: IZ

SMILES: O=c1oc2ccccc2cc1-c1cnc2c(-c3cccc([N+](=O)[O-])c3)cc3cccnc3n12
zone of inhibition at 10 µg/mL [1]: 7 mm
zone of inhibition at 35 µg/mL [2]: 31 mm
zone of inhibition at 10 µg/mL [3]: 7 mm
zone of inhibition at 10 µg/mL [4]: 8 mm
zone of inhibition at 35 µg/mL [5]: 32 mm
zone of inhibition at 25 µg/mL [6]: 2 mm
zone of inhibition at 35 µg/mL [7]: 28 mm
zone of inhibition at 25 µg/mL [8]: 20 mm
zone of inhibition at 10 µg/mL [9]: 8 mm
zone of inhibition at 35 µg/mL [10]: 28 mm
zone of inhibition at 25 µg/mL [11]: 17 mm
zone of inhibition at 25 µg/mL [12]: 19 mm

SMILES: N#Cc1c(N)nc2c(c1N)C(c1ccc(C(F)(F)F)cc1)C([N+](=O)[O-])=C1N(Cc3ccc(Cl)nc3)CCN12 (stereo not given)
LC50 [13]: 31 nM

SMILES: Cc1cc(C)c2ccc3nc(-c4ccc(F)cc4)c(CN4CCOCC4)n3c2n1
pIC50 [14]: < 4.30

SMILES: Cc1cc(C)c2ccc3nc(-c4ccccc4)c(CN4CCCCC4)n3c2n1
pIC50 [14]: 5.92

SMILES: N#Cc1c(N)nc2c(c1N)C(c1ccc(F)cc1)C([N+](=O)[O-])=C1N(Cc3ccc(Cl)nc3)CCN12 (stereo not given)
LC50 [13]: 11 nM

SMILES: O=c1oc2ccccc2cc1-c1cnc2c(-c3cccc(O)c3)cc3cccnc3n12
zone of inhibition at 10 µg/mL [1]: 7 mm
zone of inhibition at 35 µg/mL [2]: 31 mm
zone of inhibition at 10 µg/mL [3]: 7 mm
zone of inhibition at 10 µg/mL [4]: 8 mm
zone of inhibition at 35 µg/mL [5]: 32 mm
zone of inhibition at 25 µg/mL [6]: 2 mm
zone of inhibition at 35 µg/mL [7]: 28 mm
zone of inhibition at 25 µg/mL [8]: 20 mm
zone of inhibition at 10 µg/mL [9]: 8 mm
zone of inhibition at 35 µg/mL [10]: 28 mm
zone of inhibition at 25 µg/mL [11]: 17 mm
zone of inhibition at 25 µg/mL [12]: 19 mm

SMILES: Cc1cc(C)c2ccc3nc(-c4ccccc4)c(CN4CCCC4)n3c2n1
pIC50 [14]: 4.04

SMILES: O=[N+]([O-])c1cccc(-c2cc3cccnc3n3c(-c4ccc(Cl)cc4)cnc23)c1
zone of inhibition at 10 µg/mL [1]: 7 mm
zone of inhibition at 35 µg/mL [2]: 29 mm
zone of inhibition at 10 µg/mL [3]: 7 mm
zone of inhibition at 10 µg/mL [4]: 8 mm
zone of inhibition at 35 µg/mL [5]: 30 mm
zone of inhibition at 25 µg/mL [6]: 20 mm
zone of inhibition at 35 µg/mL [7]: 28 mm
zone of inhibition at 25 µg/mL [8]: 20 mm
zone of inhibition at 10 µg/mL [9]: 8 mm
zone of inhibition at 35 µg/mL [10]: 28 mm
zone of inhibition at 25 µg/mL [11]: 17 mm
zone of inhibition at 25 µg/mL [12]: 19 mm

pEC50 [15]: 5.39
SMILES: COc1ccc(-c2cc3c(C(F)(F)F)cc(C(F)(F)F)nc3n3c(-c4ccc(OC)cc4)cnc23)cc1

SMILES: Oc1ccc2nc3c(-c4ccccc4C(F)(F)F)cc4cccnc4n3c2c1
zone of inhibition at 200 µg/mL [16]: 19 mm
zone of inhibition at 200 µg/mL [17]: 20 mm
zone of inhibition at 250 µg/mL [18]: 22 mm
zone of inhibition at 250 µg/mL [19]: 23 mm
zone of inhibition at 150 µg/mL [20]: 17 mm
zone of inhibition at 150 µg/mL [21]: 18 mm
zone of inhibition at 150 µg/mL [22]: 16 mm
zone of inhibition at 200 µg/mL [23]: 22 mm
zone of inhibition at 200 µg/mL [24]: 20 mm
zone of inhibition at 250 µg/mL [25]: 22 mm
zone of inhibition at 150 µg/mL [26]: 17 mm
zone of inhibition at 250 µg/mL [27]: 22 mm

SMILES: Cc1cc(C)c2ccc3nc(-c4ccccc4)c(CN4CCOCC4)n3c2n1
inhibition at 100 µM [28]: 10.1%

SMILES: COc1ccc(-c2cc3cccnc3n3c2nc2ccccc23)cc1
zone of inhibition at 600 µg/mL [29]: 12.5 mm
zone of inhibition at 400 µg/mL [30]: 11.5 mm
zone of inhibition at 600 µg/mL [31]: 8.5 mm
zone of inhibition at 400 µg/mL [32]: 7.5 mm

SMILES: Fc1ccc(-c2cc3cccnc3n3c(-c4ccc(Br)cc4)cnc23)c(Cl)c1
zone of inhibition at 35 µg/mL [33]: 24 mm
zone of inhibition at 25 µg/mL [34]: 16 mm
zone of inhibition at 35 µg/mL [35]: 25 mm
zone of inhibition at 25 µg/mL [36]: 16 mm
zone of inhibition at 10 µg/mL [37]: 6 mm
zone of inhibition at 10 µg/mL [38]: 6 mm
